Each structure is given as a SMILES string.

Test [1] concerns A2058 (ATCC, CRL-11147) cells. As to the kind of experiment: Cell viability assay (Cell Titre Glo, 72 hours) in A2058 cells. The settings on record: Homo sapiens. Format: cell-based. Summed up:
(§1)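 10-point dose response, top final concentration 30 μM, 1 in 3 dilutions; 5000 cells per well added directly to compound. Incubated 72 hours at 37° C, 5% CO2, then viability read by Cell Titre Glo luminescence and IC50 curves fitted.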

Test [2] deals with PA1 (ECACC, 90013101) cells. In words: Cell viability assay (Cell Titre Glo, 72 hours) in PA1 cells. Format: cell-based. The note with it: Homo sapiens, PA-1. In outline: as §1

What is called IC50 is the midpoint of a concentration-inhibition curve. A higher IC50 goes with lower potency. Consider `CCn1nc(C(=O)N2CCN(c3ncc(C#N)cc3OC)CC2)c2ccccc2c1=O` [Compound 93], for which the IC50 in test [1] and in test [2] was 1000 to 10000 nM in each case.
As to `COc1ccc(C2(C)CCN(C(=O)c3nn(C)c(=O)c4ccccc34)CC2)cc1` [Compound 248, 4-(4-(4-methoxyphenyl)-4-methylpiperidine-1-carbonyl)-2-methylphthalazin-1(2H)-one], the values for the IC50 in test [1] and in test [2] were 1000 to 10000 nM and 10000 to 20000 nM, respectively.
On the same counts, the results for `Cn1nc(C(=O)N2CCN(c3cncc(C#N)c3)CC2)c2cc(F)ccc2c1=O` [Compound 234, 5-(4-(7-fluoro-3-methyl-4-oxo-3,4-dihydrophthalazine-1-carbonyl)piperazin-1-yl)nicotinonitrile] are more than 20000 nM and more than 20000 nM.
Taken in the same sequence, the figures for `Cn1nc(C(=O)N2CCN(c3cc(C#N)cc(C4CC4)c3)CC2)c2ccccc2c1=O` [Compound 206] were not above 1000 nM and not above 1000 nM.
On the same counts, the results for `Cn1nc(C(=O)N2CCN(c3cc(C#N)cc(C#N)c3)CC2)c2ccccc2c1=O` [Compound 230, 5-(4-(3-methyl-4-oxo-3,4-dihydrophthalazine-1-carbonyl)piperazin-1-yl)isophthalonitrile] are 1000 to 10000 nM and not above 1000 nM.
As to `Cn1nc(C(=O)N2CCN(c3ccc(C#N)cc3)CC2)c2ccccc2c1=O` [Compound 46], the IC50 in test [1] and in test [2] was 1000 to 10000 nM in each case.
Regarding `CCOc1ccccc1N1CCN(C(=O)c2nn(CC)c(=O)c3ccccc23)CC1` [Compound 134], the IC50 in test [1] and in test [2] was not above 1000 nM in each case.
As to `COc1cnc(C)cc1N1CCN(C(=O)c2nn(C)c(=O)c3ccccc23)CC1` [Compound 78], the IC50 in test [1] and in test [2] was 1000 to 10000 nM in each case.
As for `Cn1nc(C(=O)N2CCN(c3cccc4cnn(C)c34)CC2)c2ccccc2c1=O` [Compound 191], the half-inhibitory concentration (IC50) in test [1] and in test [2] was more than 20000 nM each time.
Regarding `CCn1nc(C(=O)N2CCN(c3ccccc3OC(C)C)CC2)c2ccccc2c1=O` [Compound 128], the results for the IC50 in test [1] and in test [2] were 1000 to 10000 nM and not above 1000 nM, respectively.
On the same counts, the results for `COc1cccc(N2CCN(C(=O)c3nn(C)c(=O)c4ccncc34)CC2)c1` [Compound 173, 4-(4-(3-methoxyphenyl)piperazine-1-carbonyl)-2-methylpyrido[3,4-d]pyridazin-1(2H)-one] are 1000 to 10000 nM and not above 1000 nM.
On the same counts, the results for `COc1ccccc1C1=CCN(C(=O)c2nn(C)c(=O)c3ccccc23)CC1` [Compound 247, 4-(4-(2-methoxyphenyl)-1,2,3,6-tetrahydropyridine-1-carbonyl)-2-methylphthalazin-1(2H)-one] are not above 1000 nM and not above 1000 nM.
Taken in the same sequence, the figures for `CCn1nc(C(=O)N2CCN(c3ccc(F)c4ccoc34)CC2)c2ccccc2c1=O` [Compound 92] were not above 1000 nM and not above 1000 nM.
Take `CCn1nc(C(=O)N2CCN(c3cc(OC)ccn3)CC2)c2ccccc2c1=O` [Compound 85]: the IC50 in test [1] and in test [2] was 1000 to 10000 nM throughout.
As to `CCn1nc(C(=O)N2CCN(c3cc(F)cc(C#N)c3)CC2)c2cc(F)ccc2c1=O` [Compound 239], the IC50 in test [1] and in test [2] was not above 1000 nM in each case.
For `COc1cc(F)c(F)cc1N1CCN(C(=O)c2nn(C)c(=O)c3ccccc23)CC1` [Compound 56], the 50% inhibitory concentration (IC50) in test [1] and in test [2] was not above 1000 nM each time.
On to `COc1ccccc1N1CCN(C(=O)c2nn(C)c(=O)c3cnccc23)CC1` [Compound 179], for which the IC50 in test [1] and in test [2] was 1000 to 10000 nM each time.
Turning to `CCn1nc(C(=O)N2CCN(c3ccccc3OC(F)(F)F)CC2)c2ccccc2c1=O` [Compound 135], the IC50 in test [1] and in test [2] was not above 1000 nM throughout.
In the case of `Cc1cc(C#N)cc(N2CCN(C(=O)c3nn(C)c(=O)c4ccccc34)CC2)c1` [Compound 68], the IC50 in test [1] and in test [2] was not above 1000 nM in each case.
On to `CCn1nc(C(=O)N2CCN(c3ccncc3C3CC3)CC2)c2ccccc2c1=O` [Compound 115], for which the IC50 in test [1] and in test [2] was not above 1000 nM throughout.
As to `Cn1nc(C(=O)N2CCN(c3ncc(F)cc3C3CC3)CC2)c2ccccc2c1=O` [Compound 19], the IC50 is 1000 to 10000 nM in test [1] and not above 1000 nM in test [2].
In the case of `Cn1nc(C(=O)N2CCN(c3cc(C#N)ccc3Cl)CC2)c2ccccc2c1=O` [Compound 229, 4-chloro-3-(4-(3-methyl-4-oxo-3,4-dihydrophthalazine-1-carbonyl)piperazin-1-yl)benzonitrile], the half-maximal inhibitory concentration (IC50) in test [1] and in test [2] was not above 1000 nM each time.
Consider `Cc1ccc(C#N)cc1N1CCN(C(=O)c2nn(C)c(=O)c3ccc(F)cc23)CC1` [Compound 211], for which the IC50 in test [1] and in test [2] was not above 1000 nM each time.
As for `Cn1nc(C(=O)N2CCN(c3cc(C#N)cc(OC(F)F)c3)CC2)c2ccccc2c1=O` [Compound 199], the IC50 in test [1] and in test [2] was not above 1000 nM in each case.
Take `COc1cc(C#N)ncc1N1CCN(C(=O)c2nn(C)c(=O)c3ccccc23)CC1` [Compound 24]: the half-inhibitory concentration (IC50) in test [1] and in test [2] was more than 20000 nM each time.

These data come from patent US12465603B2, “Phthalazinone based modulators for the treatment of disease” (Soley Therapeutics, Inc., priority 2022, dated 2025).
